Laboratory results from patent publication US8377967B2, “Piperidine derivative” (Nippon Zoki Pharmaceutical Co., Ltd., priority 2008, dated 2013).

Columns and labels:
[1] = test system: histamine-induced vascular hyperpermeability reaction; assay: Rat histamine-induced vascular hyperpermeability reaction (in vivo antihistamine action); details: SD male rat, oral administration 1 hour before intracutaneous histamine, leaked Evans Blue pigment
Procedure: An SD male rat (SPF) of 180 g in weight was previously fed for one week or more by allowing the rat to take a solid feed and tap water ad libitum, under the environment setting of a temperature of 22° C., humidity of 55% and an artificial illumination of 12 hours a day (light phase 8 am to 8 pm), and the rat was fasted overnight to be used for the experiment. Histamine•dihydrochloride (hereinafter referred to as histamine) and Evans Blue were used by dissolving each in physiological saline upon use. A substance to be tested was dissolved in water for injection or suspended in 0.5% carboxymethyl cellulose sodium, and the rat was orally administered with the solution or suspension (dose volume: 5 mL/kg body weight). After 1 hour from the administration, the physiological saline and the histamine solution were each intracutaneously injected to two locations (20 μg/0.05 ml/location) each on a back part of the rat of which hair was sheared with an electric clipper while anesthetizing with an ether. A 0.5% Evans Blue-containing physiological saline was injected intravenously to the tail of the rat (1 mL/200 g body weight) immediately before the intracutaneous injection of the histamine.
After 30 minutes, the animal was decapitated, and allowed to bleed lethally, and the skin was removed to measure an amount of leaked pigment in the blue-stained portion. The measurement of the amount of leaked pigment was carried out as follows. Skins of the pigment leaking site were cut out at two locations, 1 mL of a 2 mol/L aqueous potassium hydroxide solution was added thereto in a test tube, and the test tube was allowed to stand overnight at 37° C. to dissolve. Thereafter, 6 mL of a 1:3 mixed solution of 0.67 mol/L phosphoric acid and acetone was added to the solution, and the mixture was vigorously shaken for 10 minutes. Thereafter, the mixture was filtered, and the absorbance of the filtrate at 620 nm was measured. The absorbance obtained from the two locations of the sites injected with physiological saline, as blank value, was used for a compensation. The amount of leaked pigment was calculated from the calibration curve of Evans Blue at 620 nm.

[2] = biological target: human histamine H1 receptor (Homo sapiens, UniProt P35367); assay: In vitro human histamine H1 receptor binding experiment ([3H]pyrilamine); details: HEK293A cells stably expressing human histamine H1 receptor, [3H]pyrilamine 3 nmol/L, room temperature 60 minutes
human histamine H1 receptor, sequence (P35367 whole entry): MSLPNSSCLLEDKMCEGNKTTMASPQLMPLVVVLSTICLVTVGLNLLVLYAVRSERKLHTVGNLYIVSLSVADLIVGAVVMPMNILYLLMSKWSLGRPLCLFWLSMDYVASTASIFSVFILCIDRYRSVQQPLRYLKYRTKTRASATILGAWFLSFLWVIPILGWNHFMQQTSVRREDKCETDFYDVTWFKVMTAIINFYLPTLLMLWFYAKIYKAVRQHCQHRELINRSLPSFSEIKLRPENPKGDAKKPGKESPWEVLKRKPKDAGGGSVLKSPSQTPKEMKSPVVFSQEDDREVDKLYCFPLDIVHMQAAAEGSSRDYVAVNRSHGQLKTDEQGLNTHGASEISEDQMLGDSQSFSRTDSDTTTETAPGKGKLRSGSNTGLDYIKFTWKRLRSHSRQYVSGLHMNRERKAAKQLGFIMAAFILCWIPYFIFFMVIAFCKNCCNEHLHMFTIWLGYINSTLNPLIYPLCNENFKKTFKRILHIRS
Procedure: Recombinant human histamine H1 receptor plasmid (prepared by Invitrogen) was transfected to HEK293A cells with Lipofectamine 2000 (manufactured by Invitrogen). Cells stably expressing human histamine H1 receptor were screened with Geneticin (manufactured by Invitrogen). The cells were continued to be cultured using a Dulbecco's Modified Eagle Medium containing 10% fetal bovine serum, 0.1 mmol/L MEM Non-Essential Amino Acids Solution, 2 mmol/L L-glutamine and 0.7 mg/mL Geneticin in a 5% CO2 incubator at 37° C. The cells stably expressing human histamine H1 receptor were prepared using 50 mmol/L Tris-HCl (pH 7.5) (hereinafter referred to as buffer) containing 0.1% bovine serum albumin, so as to have a concentration of 3×10^6 cells/mL, to give a cell sample preparation. Fifty microliters of the buffer, 50 μl of a test substance solution at various concentrations, and 50 μL of [^3H]pyrilamine solution (final concentration: 3 nmol/L) were added to each of the wells on the 96-well plate, and stirred, and 100 μL of the cell sample preparation was then added thereto (at a concentration of 3×10^5 cells/well) to initiate the reaction.
The cells were incubated at room temperature for 60 minutes, and then filtered on UniFilter GF/C plate (manufactured by Packard) immersed in 0.5% polyethyleneimine using a cell harvester (IH-110, manufactured by INNOTECH CORPORATION), to stop the reaction, and the plate was washed with the buffer. The plate after washing was sufficiently dried, and 20 μL of a scintillator (MaxiLight, manufactured by Hidex) was added thereto, and count per minute (cpm) was measured with a multi-labeled microplate reader (Plate Chameleo II, manufactured by Hidex). The nonspecific binding was cpm in a case where 30 μmol/L pyrilamine was added. The experiments were carried out at n=3, and at least repeated 3 times.

cerebral H1 receptor = biological target: T1, cerebral H1 receptor (Mus musculus, UniProt P70174); assay: Murine cerebral H1 receptor occupying content (ex vivo); assay type: in vivo; details: for ED50: ICR male mouse, oral administration, brain excised after 1 hour, 3H-pyrilamine binding in brain homogenate, larger = lower brain transfer, read-out: ID50 (the source's name); for ID50 (mg/kg)/ ED50 (mg/kg): ID50 of cerebral receptor binding test (Table 20) divided by ED50 of vascular hyperpermeability test (Table 19)
T1 construct: the entire brain, except for cerebellum and medulla oblongatae, was rapidly excised; from tissue; host or cells: brain homogenate (without cerebellum and medulla oblongata) of orally dosed ICR male mice
T1 sequence (P70174 whole entry): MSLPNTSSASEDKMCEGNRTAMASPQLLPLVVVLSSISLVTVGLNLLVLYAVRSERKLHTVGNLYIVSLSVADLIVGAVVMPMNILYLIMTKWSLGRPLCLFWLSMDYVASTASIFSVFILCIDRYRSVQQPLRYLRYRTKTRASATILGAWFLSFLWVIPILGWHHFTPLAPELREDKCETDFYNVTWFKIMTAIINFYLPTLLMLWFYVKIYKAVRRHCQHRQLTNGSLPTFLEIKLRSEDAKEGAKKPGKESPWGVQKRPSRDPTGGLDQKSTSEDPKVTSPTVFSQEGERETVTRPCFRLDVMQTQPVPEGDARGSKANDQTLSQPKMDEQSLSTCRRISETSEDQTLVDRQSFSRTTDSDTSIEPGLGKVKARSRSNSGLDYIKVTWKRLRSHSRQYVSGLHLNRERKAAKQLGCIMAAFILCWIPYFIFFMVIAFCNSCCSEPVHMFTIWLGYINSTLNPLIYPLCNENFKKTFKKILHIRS
Procedure: A 6-week-old ICR male mouse was previously fed for one week or more by allowing the mouse to take a solid feed and tap water ad libitum, under the environment setting of a temperature of 22° C., humidity of 55% and an artificial illumination of 12 hours a day, and the mouse was fasted overnight to be used for the experiment. A substance to be tested was dissolved with water for injection or suspended in 0.5% carboxymethyl cellulose solution, and the solution or suspension was orally administered to the mouse (dose volume: 0.1 mL/10 g body weight). After 1 hour from the oral administration, the mouse was decapitated, and the entire brain, except for cerebellum and medulla oblongatae, was rapidly excised. The excised brain tissue was homogenized with Polytron (manufactured by Kinematica) in an ice-cooled 50 mmol/L phosphate buffered saline (pH 7.4, 100 mg/1.9 mL).
To a test tube for reaction (TPX-Tube) were added 180 μL of the brain homogenate, and 10 μL of ^3H-pyrilamine solution (final concentration: 2 nmol/L) and 10 μL of a non-labeled pyrilamine solution (final concentration: 200 μmol/L) or a 50 mmol/L phosphate buffered saline, and the mixture was incubated at room temperature for 45 minutes, and 2.0 mL of an ice-cooled, 50 mmol/L phosphate buffered saline was then added thereto to stop the reaction. The reaction mixture was filtered with a GF/B filter (manufactured by […]), and the […] was placed in a vial and dried overnight at 60 degrees. After drying, 10 mL of a scintillator (AL-1, toluene-based, manufactured by DOJINDO LABORATORIES) was added to the product, and the disintegration per minute (dpm) was measured with a liquid scintillation counter (manufactured by Packard, U.S.A., TRI-CARB 2700TR) (5 minutes/vial).

SMILES | ED50 [1] | IC50 [2] | ED50 (cerebral H1 receptor) | ID50 (mg/kg)/ ED50 (mg/kg) (cerebral H1 receptor)
COC(=O)Cc1ccc2c(c1)C(=C1CCN(CCCSC)CC1)c1sccc1CO2.Cl [Compound 198, Methyl {4-[1-(3-methylsulfanylpropyl)piperidin-4-ylidene]-4,10-dihydro-9-oxa-3-thiabenzo[f]azulen-6-yl}acetate hydrochloride] | ~0.3 mg/kg | 0.00059 µM | 22.1 mg/kg | 73.7
CN1CCC(=C2c3ccccc3CCc3sc(C(=O)NCCO)cc32)CC1 [Compound 27, N-(2-Hydroxyethyl) [4-(1-methylpiperidin-4-ylidene)-9,10-dihydro-4H-1-thiabenzo[f]azulen-2-yl]carboxamide] | 1.63 mg/kg | 0.0528 µM | 55.1 mg/kg | 33.8
COC(=O)Cc1ccc2c(c1)C(=C1CCN(CCNS(C)(=O)=O)CC1)c1sccc1CO2.Cl [Compound 177, Methyl {4-[1-(2-methanesulfonylaminoethyl)piperidin-4-ylidene]-4,10-dihydro-9-oxa-3-thiabenzo[f]azulen-6-yl}acetate hydrochloride] | 0.302 mg/kg | 0.00712 µM | 125 mg/kg | 412.6
COC(=O)Cc1ccc2c(c1)C(=C1CCN(C(C)C)CC1)c1sccc1CO2.Cl [Compound 131, Methyl[4-(1-isopropylpiperidin-4-ylidene)-4,10-dihydro-9-oxa-3-thiabenzo[f]azulen-6-yl]acetate hydrochloride] | ~0.1 mg/kg | 0.0323 µM | 9.2 mg/kg | 92.0
CCOC(=O)Cc1ccc2c(c1)C(=C1CCN(C)CC1)c1sccc1CO2.Cl [Compound 140, Ethyl[4-(1-methylpiperidin-4-ylidene)-4,10-dihydro-9-oxa-3-thiabenzo[f]azulen-6-yl]acetate hydrochloride] | ~0.01 mg/kg | 0.0101 µM | 3.5 mg/kg | 350.0
CCOC(=O)CCN1CCC(=C2c3cc(CC(=O)OC)ccc3OCc3ccsc32)CC1.Cl [Compound 173, Ethyl 3-[4-(6-methoxycarbonylmethyl-10H-9-oxa-3-thiabenzo[f]azulen-4-ylidene)piperidin-1-yl]propionate hydrochloride] | 1.43 mg/kg | 0.00126 µM | 87.1 mg/kg | 60.9
CN1CCC(=C2c3ccccc3CCc3cc(C=CC(=O)O)sc32)CC1 [Compound 15, 3-[4-(1-Methylpiperidin-4-ylidene)-9,10-dihydro-4H-3-thiabenzo[f]azulen-2-yl]acrylic acid] | 0.18 mg/kg | 0.0268 µM | 5.6 mg/kg | 31.1
COC(=O)Cc1ccc2c(c1)C(=C1CCN(CCCC(C)=O)CC1)c1sccc1CO2.Cl [Compound 169, Methyl {4-[1-(4-oxopentyl)piperidin-4-ylidene]-4,10-dihydro-9-oxa-3-thiabenzo[f]azulen-6-yl}acetate hydrochloride] | 0.241 mg/kg | 0.00832 µM | 12.5 mg/kg | 51.9
COC(=O)COc1ccc2c(c1)C(=C1CCN(C)CC1)c1sccc1CO2.Cl [Compound 165, Methyl[4-(1-methylpiperidin-4-ylidene)-4,10-dihydro-9-oxa-3-thiabenzo[f]azulen-6-yloxy]acetate hydrochloride] | 0.107 mg/kg | 0.0118 µM | 23 mg/kg | 215.0
CN1CCC(=C2c3cc(CC(=O)O)ccc3CCc3sccc32)CC1 [Compound 151, [4-(1-Methylpiperidin-4-ylidene)-9,10-dihydro-4H-1-thiabenzo[f]azulen-6-yl]acetic acid] | < 0.1 mg/kg | 0.0936 µM | 6.36 mg/kg | >63.6
CSCCCN1CCC(=C2c3cc(CC(=O)O)ccc3OCc3ccsc32)CC1 [Compound 199, {4-[1-(3-Methylsulfanylpropyl)piperidin-4-ylidene]-4,10-dihydro-9-oxa-3-thiabenzo[f]azulen-6-yl}acetic acid] | ~0.01 mg/kg |  | 4.5 mg/kg | 450.0
COC(=O)Cc1ccc2c(c1)C(=C1CCN(CC(C)=O)CC1)c1sccc1CO2.Cl [Compound 167, Methyl {4-[1-(2-oxopropyl)piperidin-4-ylidene]-4,10-dihydro-9-oxa-3-thiabenzo[f]azulen-6-yl}acetate hydrochloride] | 0.194 mg/kg |  | 35.1 mg/kg | 180.9
CN1CCC(=C2c3cc(C=CC(=O)O)ccc3OCc3ccsc32)CC1 [Compound 35, 3-[4-(1-Methylpiperidin-4-ylidene)-4,10-dihydro-9-oxa-3-thiabenzo[f]azulen-6-yl]acrylic acid] | 0.28 mg/kg |  | 28.4 mg/kg | 101.4
CCN1CCC(=C2c3ccccc3CCc3sc(C(C)(C)C(=O)O)cc32)CC1 [Compound 155, 2-[4-(1-Ethylpiperidin-4-ylidene)-9,10-dihydro-4H-1-thiabenzo[f]azulen-2-yl]-2-methylpropionic acid] | 0.334 mg/kg |  | 66.6 mg/kg | 199.4
CC(=O)CCN1CCC(=C2c3cc(CC(=O)O)ccc3OCc3ccsc32)CC1 [Compound 192, {4-[1-(3-Oxobutyl)piperidin-4-ylidene]-4,10-dihydro-9-oxa-3-thiabenzo[f]azulen-6-yl}acetic acid] | 0.312 mg/kg |  | 63.8 mg/kg | 204.5
O=C(O)CCc1cc2c(s1)C=Cc1ccccc1C2=C1CCNCC1 [Compound 209, 3-(4-Piperidin-4-ylidene-4H-1-thiabenzo[f]azulen-2-yl)propionic acid] | 0.42 mg/kg |  | > 200 mg/kg | >476.2
CCOC(=O)Cc1ccc2c(c1)C(=C1CCNCC1)c1sccc1CO2.Cl [Compound 113, Ethyl (4-piperidin-4-ylidene-4,10-dihydro-9-oxa-3-thiabenzo[f]azulen-6-yl)acetate hydrochloride] | 0.072 mg/kg |  | 98.7 mg/kg | 1370.8
